Ends that are not written are not given here.
How the values were obtained:
APP/PS1 transgenic mice = test: Morris water maze test in AD mice; assay type: in vivo; settings: continuously for 1 week
[1] = tested on: hippocampal CA1 pyramidal neurons; test: Whole-cell patch-clamp recording of spontaneous excitatory postsynaptic current (sEPSC) in hippocampal brain sections; assay type: cell-based, C57 mouse; settings: 5 µM polypeptide applied for 5 min; clamp voltage -70 mV; FIGS. 8A-8C
From the text: • Polypeptide QD202 was synthesized according to the amino acid sequence set forth in SEQ ID NO: 1. • Polypeptide QD202 N'-1 was synthesized according to the amino acid sequence set forth in SEQ ID NO: 2. • Polypeptide QD202 C'-1 was synthesized according to the amino acid sequence set forth in SEQ ID NO: 3. • Polypeptide QD202 C'-2 was synthesized according to the amino acid sequence set forth in SEQ ID NO: 4. • Polypeptide SS8 was synthesized according to the amino acid sequence set forth in SEQ ID NO: 54.
0.1-0.15 ml of 20% ethyl carbamate was injected into the abdominal cavity of a C57 mouse of 2 to 3 months old for anesthesia; a head was quickly cut, and brain tissues were stripped and put into artificial cerebrospinal fluid (ACSF) ice-water mixed liquid into which mixed gas (95%O2 and 5%CO2) was introduced in advance, and stood for 2 min; the ACSF included the following components: […] of NaCl, […] of KCl, 0.12 mM of NaH2PO4, […] of CaCl2, 0.12 mM of MgCl2, 25 mM of NaHCO3 and 11 mM of glucose. A hippocampus coronal brain section of […] was cut by a vibration slicer. […] The recorded data were analyzed by Minianalysis software.

hATP6V1B2 = hATP6V1B2 (Homo sapiens, UniProt P21281); test: Co-immunoprecipitation of Myc-tagged hATP6V1B2 with GFP-tagged QD202 and site mutants (HEK 293 lysates, western blot); assay type: binding; settings: expressed from pEGFP-N3 plasmids in HEK 293, anti-GFP IP, FIG. 7A, 7B
hATP6V1B2, sequence (P21281 whole entry): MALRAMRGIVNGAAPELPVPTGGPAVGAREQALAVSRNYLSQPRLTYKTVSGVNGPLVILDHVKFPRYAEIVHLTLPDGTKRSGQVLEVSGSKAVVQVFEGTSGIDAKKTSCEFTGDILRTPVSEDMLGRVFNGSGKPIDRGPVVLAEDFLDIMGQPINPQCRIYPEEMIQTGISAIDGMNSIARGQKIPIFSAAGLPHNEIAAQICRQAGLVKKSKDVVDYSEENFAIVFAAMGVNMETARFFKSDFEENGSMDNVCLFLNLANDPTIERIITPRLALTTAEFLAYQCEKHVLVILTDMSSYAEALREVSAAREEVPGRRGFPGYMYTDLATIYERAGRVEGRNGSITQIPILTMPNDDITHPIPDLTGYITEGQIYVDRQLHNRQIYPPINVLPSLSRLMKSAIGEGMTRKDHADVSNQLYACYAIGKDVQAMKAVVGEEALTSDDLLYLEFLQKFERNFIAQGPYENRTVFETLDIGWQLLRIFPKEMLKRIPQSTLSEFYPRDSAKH
Protocol: Expression plasmids of hATP6V1B2, QD202, site-mutated QD202(D15A), site-mutated QD202(V16A), site-mutated QD202(P13A), and site-mutated QD202(V14A) were constructed respectively. The hATP6V1B2 was co-transfected into HEK 293 cells with the expression plasmids of QD202, site-mutated QD202(D15A), site-mutated QD202(V16A), site-mutated QD202(P13A) and site-mutated QD202(V14A), respectively, and cellular proteins were extracted 48 h after transfection. Table 1: Plasmid sequences
Protein extraction was performed using Pierce RIPA lysis buffer. Taking cells in a 60 mm culture dish as an example, 500 µL of Pierce RIPA lysis buffer containing protease inhibitors was added. Cells were collected and transferred to a clean 1.5 mL EP tube using a cell scraper. After mixing for 1 h on a rotary mixer at 4°C, the cells were centrifuged at 13,000 rpm at 4°C for 10 min to remove cell debris. The hATP6V1B2 was equally divided into […], which were then mixed separately with the cell lysates transfected with QD202, site-mutated QD202(P13A), site-mutated QD202(V14A), site-mutated QD202(D15A), and site-mutated QD202(V16A), 30 µL of the supernatant was taken and mixed with 10 µL of 4× loading buffer, followed by boiling at 100°C for 5 min and storage at -20°C; 2 µL of the antibody (Anti-GFP, Roche, 11814460001) was added to the remaining 470 µL of the protein lysate, and the mixture was incubated overnight (about 16-18 h) on a rotary shaker at 4°C. 30 µL of Protein G Sepharose beads (Roche, 11243233001) were placed in an EP tube and washed three times with Pierce RIPA lysis buffer to eliminate interference from the original stock solution. The protein that had been incubated with the antibody overnight was added to the Sepharose beads, followed by mixing and incubation at 4°C for 2 h to ensure sufficient binding between the antibody and the protein. The mixture was centrifuged at 4000 rpm for 1 min. The supernatant was aspirated off, followed by the addition of 600 µL of Pierce RIPA lysis buffer. The tube was gently inverted, followed by centrifugation to collect the supernatant. The above steps were repeated three times to wash away non-specifically bound proteins. Finally, 30 µL of 1×loading buffer was added, the mixture was mixed well, heated at 60°C for 20 min to denature the protein, and then stored at -20°C. The protein was examined by western blot (Myc-Tag (9B11) Mouse mAb, CST, 2276S; Anti-GFP, Roche, 11814460001).
The hATP6V1B2 was co-transfected into the host cell line HEK 293 with the expression plasmids of QD202, site-mutated QD202(P13A), site-mutated QD202(V14A), site-mutated QD202(D15A) and site-mutated QD202(V16A), respectively. […] It is therefore hypothesized that valine at position 16 of QD202 is one of the key amino acids for the binding between hATP6V1B2 and QD202, whereas proline at position 13, valine at position 14 and aspartic acid at position 15 can be replaced with alanine, as illustrated in FIG. 7A and FIG. 7B.

QD202: Polypeptide synthesized according to the amino acid sequence set forth in SEQ ID NO: 1; ATP6V1B2 regulator / DIR regulator (YGRKKRRQRRRSPVDVVCS; not fully specified)
learning and cognitive functions in the water maze behavior (APP/PS1 transgenic mice; intragastric, 6.25 mg/kg, ten-month-old APP/PS1 mice, FIG. 10): obvious improvement of learning and cognitive functions | learning and cognitive functions in water maze behavior (APP/PS1 transgenic mice; intravenous injection, 1.25 mg/kg, APP/PS1 mice of 10 months old, FIG. 12): obvious improvement on learning and cognitive functions | excitatory postsynaptic current amplitude [1]: no influence | release frequency of excitatory postsynaptic current [1]: increasing | binding to Myc-tagged hATP6V1B2 (co-immunoprecipitation) (hATP6V1B2): bind to

Source: patent publication EP4755393A1, “USE OF PROTON PUMP REGULATOR IN PREPARATION OF DRUG” (Shanghai Quietd Biotechnology Co., Ltd., priority 2023, dated 2025)
